# Test results published in patent US7115645B2, “1,2 diarylbenzimidazoles and their pharmaceutical use” (Schering Aktiengesellschaft, priority 2000, dated 2006).
# Tested on: primary rat microglia
# Assay: Inhibition of microglia activation (Aβ-peptide-activated primary rat microglia, MTS reduction)
# Type: cell-based
# Conditions: 168 h, test of Example 307, metabolic activity via MTS reduction on cultivation day 7, relative to DMSO control
smiles,measurement,value
"Cc1ccc(-n2c(-c3ccccc3)nc3ccc(OCCCCCC(=O)OC(C)C)cc32)cc1 [Example 49, 6-[[1-(4-Methylphenyl)-2-phenyl-1H-benzimidazol-6-yl]oxy]hexanoic acid isopropyl ester]",IC50,750 nM
